Measurements: patent publication US5612356A, “Heterocycle-containing carbonic acid derivatives” (Eisai Co., Ltd., priority 1992, dated 1997)

Assays:
[1] = biological target: T1, retinoic acid receptor (RAR) (Homo sapiens, UniProt P10276); assay: Receptor binding assay using human promyelocytic leukemia cell HL60 (nuclear extract), inhibition of 3H-all-trans retinoic acid binding to RAR; conditions: HL60 cell nucleus extract, 4° C., 16 hours
T1 construct: by the use of an extract from HL 60 cell nuclei; endogenous in cells; host or cells: HL60 human promyelocytic leukemia cells, 0.8 M KCl nuclear extract
T1 sequence (P10276 1-462): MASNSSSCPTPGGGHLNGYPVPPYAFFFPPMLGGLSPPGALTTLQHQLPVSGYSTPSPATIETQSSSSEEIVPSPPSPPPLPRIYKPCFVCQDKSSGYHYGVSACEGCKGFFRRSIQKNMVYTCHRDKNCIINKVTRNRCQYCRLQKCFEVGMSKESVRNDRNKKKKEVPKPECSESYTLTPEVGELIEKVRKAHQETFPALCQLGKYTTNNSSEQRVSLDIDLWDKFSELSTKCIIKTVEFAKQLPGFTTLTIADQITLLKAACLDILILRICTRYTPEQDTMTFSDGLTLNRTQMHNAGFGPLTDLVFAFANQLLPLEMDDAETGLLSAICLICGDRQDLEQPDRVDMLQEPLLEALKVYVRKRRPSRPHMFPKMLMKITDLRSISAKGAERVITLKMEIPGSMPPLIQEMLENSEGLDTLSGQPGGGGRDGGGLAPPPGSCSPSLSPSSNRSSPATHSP
Protocol: Receptor binding assay using human promyelocytic leukemia cell, HL60
It has been known that a receptor for all-trans retinoic acid [i.e., retinoic acid receptor (RAR)] is present in the nucleus of HL 60 cell (see Clara Nervi et al., Proc. Natl. Acad. Sci. USA, 86, 5854 (1989)). Therefore, the extent of specific binding of all-trans retionic acid to RAR was determined by the use of an extract from HL 60 cell nuclei; and the ability of each compound to bind to RAR was determined based on the inhibitory activity of the compound against the above specific binding.
The above cell nucleus extract was prepared as follows.
HL 60 cells (5×10^8) were suspended in 15 ml of a solution A [comprising 5 mM of sodium phosphate (pH: 7.4), 10 mM of monothioglycerol,10% (v/v) of glycerol, 1 mM of phenylmethylsulfonyl fluoride (PMSF), 10 μg/ml of aprotinin and 25 μg/ml of leupeptin). The obtained suspension was homogenized with a homogenizer and centrifuged to remove a formed supernatant. The obtained sediment was suspended in 15 ml of a solution B [comprising 10 mM of Tris-HCl (pH: 8.5), 10 mM of monothioglycerol, 10% (v/v) of glycerol, 1 mM of PMSF, 10 μg/ml of aprotinin, 25 μg/ml of leupeptin and 0.8 M of KC1]. The obtained suspension was allowed to stand at 4° C. for one hour and ultracentrifuged (under the conditions of 100,000×g and 4° C. for one hour). The supernatant thus obtained was stored in a state freezed at -80° C. and used as the cell nucleus extract [see Methods in Enzymology, 189: 248).
The receptor binding assay was conducted as follows.
180 μl of the above extract and 10 μl of a dilution of all-trans retionic acid or a compound to be tested were put in each well of a 96-well polypropylene plate, followed by the addition thereto of ^3 H-all-trans retionic acid in an amount of 10 μl/well. The plate was allowed to stand at 4° C. for 16 hours. A solution containing 3% of charcoal and 0.3% of dextran was added to the reaction mixture in the well and the obtained mixture was centrifuged to remove free ^3 H-all-trans retionic acid. The intensity of radiation of the supernatant was determined with a scintillation counter. The extent of specific binding of all-trans retinoic acid to RAR was determined by taking the intensity of radiation, observed when 200-fold excess of all-trans retinoic acid was added, as that of a nonspecific binding, and substracting the intensity of radiation thus taken from that of the one determined above.

[2] = system: HL60 cell; assay: Antagonism against all-trans retinoic acid in inducing the differentiation of HL60 cell (CD11b-positive cells, flow cytometry); assay type: cell-based; conditions: Homo sapiens, HL-60, 120 h, all-trans retinoic acid 30 nM, 5 days
From the text: Antagonism against all-trans retinoic acid in inducing the differentiation of HL60 cell
It has been known that a human promyelocytic leukemia cell strain HL60 is differentiated into granulocytic cells in the presence of all-trans retinoic acid (see Breitman, T., Selonick, S., and Collins, S., Proc. Natl. Acad. Sci. USA, 77, 2936(1980)). Generally, a cell forms a specific differentiation antigen on its surface, when it has achieved differentiation. When an HL60 cell is differentiated into a granulocytic cell, CD11b which is an antigen discriminating granulocyte or monocute is formed on the surface of the cell (see Fontana, J. A., Reppuci, A., Durham, J. P., and Mirand, D., Cancer Res. 46, 2469 to 2473 (1986)). The antagonism against the differentiation of HL60 into granulocytic cell which is induced by all-trans retionic acid was studied by utilizing the above phenomenon.
HL60 cells were cultured and maintained in a culture medium prepared by adding 10% of inactivated bovine fetus serum, 1 mM of sodium pyruvate, 50 μM of β-mercaptoethanol, 100 I.U./ml of penicillin and 100 μg/ml of streptomycin to RPMI1640 (a culture medium formulated in Rosewell Park Memorial Institute).
The resulting plate was incubated in an incubator (5% CO2 /air) for 5 days. After the incubation, the cells of each well were recovered into a test tube, followed by the addition thereto of an FITC-labeled monoclonal antibody reactive with CD11b which is an antigen specific to granulocyte or monocute. The resulting cells were immobilized with 0.2% paraformaldehyde. The immobilized cell suspension was examined by flow cytometry for the proportion of CD11b-positive cells in the above HL60 cell group in each well (see Miller, L. J., Schwarting, R., and Springer, T. A., J. Immunol. 137, 2891 to 2900 (1986)).

SMILES | IC50 [1] [nM] | IC50 [2] [nM]
Cn1nc(-c2ccc(C(=O)O)cc2)c2ccc3cc4c(cc3c21)C(C)(C)CCC4(C)C [Example 14, 4-(7,8,9,10-Tetrahydro-1,7,7,10,10-pentamethylanthra-[2,1-d]pyrazol-3-yl)benzoic acid] | 50 | 2200
CC1(C)CCC(C)(C)c2cc3c(cc21)CCc1c(-c2ccc(C(=O)O)cc2)cn(Cc2cccnc2)c1-3 [Example 16, 4-[4,5,7,8,9,10-Hexahydro-7,7,10,10-tetramethyl-1(3-pyridylmethyl)anthra[1,2-b]pyrrol-3-yl]benzoic acid] | < 0.5 | 120
Cn1nc(-c2ccc(C(=O)O)cc2)c2c1-c1cc3c(cc1SC2)C(C)(C)CCC3(C)C [Example 11] | 9 | 1200
CC1(C)CCC(C)(C)c2cc3c(cc21)CCc1c(-c2ccc(C(=O)O)cc2)nn(Cc2ccccc2)c1-3 [Example 4] | < 0.5 | 1000
CCCCCCCOc1cc2c(cc1/C(C)=C/c1ccc(C(=O)O)cc1)C(C)(C)CCS2(=O)=O [Example R041-5253, reference compound] | 9 | 7200

Continued, values first:

IC50 [1] [nM] | IC50 [2] [nM] | SMILES
22 | 560 | Cn1nc(-c2ccc(C(=O)O)cc2)c2c1-c1cc3c(cc1CC2)C(C)(C)CCC3(C)C [Example 7, 4-(4,5,7,8,9,10-Hexahydro-1,7,7,10,10-pentamethylanthra[2,1-d]pyrazol-3-yl)benzoic acid]
32 | 14000 | CCCCCn1cc(-c2ccc(C(=O)O)cc2)c2c1-c1cc3c(cc1CC2)C(C)(C)CCC3(C)C [Example 22]
4.2 | 2700 | CC1(C)CCC(C)(C)c2cc3c(cc21)CCc1c(-c2ccc(C(=O)O)cc2)cn(-c2ccccc2)c1-3 [Example 18]
50 | 6700 | CC(C)n1nc(-c2ccc(C(=O)O)cc2)c2c1-c1cc3c(cc1CC2)C(C)(C)CCC3(C)C [Example 2]
26 | 3800 | CC1(C)CCC(C)(C)c2cc3c(cc21)CCc1c(-c2ccc(C(=O)O)cc2)coc1-3 [Example 106, 4-(4,5,7,8,9,10-Hexahydro-7,7,10,10-tetramethylanthra-[1,2-b]furan-3-yl)benzoic acid]
0.5 | 480 | CC1(C)CCC(C)(C)c2cc3c(cc21)CCc1c(-c2ccc(C(=O)O)cc2)cn(-c2cccnc2)c1-3 [Example 19]
4 | 700 | CCn1nc(-c2ccc(C(=O)O)cc2)c2c1-c1cc3c(cc1CC2)C(C)(C)CCC3(C)C [Example 1, 4-(1-Ethyl-4,5,7,8,9,10-hexahydro-7,7,10,10-tetramethylanthra[2,1-d]pyrazol-3yl)benzoic acid]
